Test results published in patent publication US20100119483A1, “PEPTIDE VIRAL ENTRY INHIBITORS” (Schering Corporation, priority 2004, published 2010).
Several values for one entry are separate records, joined by “and”; a condition that tells them apart may be missing. Equal values may be shown once.

Assays:
[1] = tested on: HCV pseudoparticles; test: HCV pseudoparticle (HCVpp) entry assay in Huh7 hepatoma cells, luciferase readout; format: cell-based, hepatitis C virus; conditions: for RLU units: HCVpp
Outline: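 Huh7 cells were pre-treated with peptide for 1 h at 37 °C before exposure to HCV E1/E2-pseudotyped HIV luciferase particles made in 293T cells, followed by 72 h culture and luciferase readout. Peptides were tested at 10 points, 3-fold, from 100 ug/ml; particles lacking envelope served as non-specific entry control.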

[2] = tested on: amphotropic murine leukemia virus; test: AMLV pseudotyped virus entry counter-screen, same infection protocol; format: cell-based; conditions: peptide library screen; cell entry inhibition vs uninhibited control
Outline: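 Huh7 hepatoma cells pre-incubated with peptide 1 h at 37 °C, then infected with AMLV pseudotyped virus and cultured 72 h at 37 °C, 5% CO2 before luciferase read-out. Peptides screened at 100 ug/ml, then 10-point 3-fold titrations from 100 ug/ml.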

[3] = tested on: HIVpp; test: HIV pseudotyped virus (HIVpp) entry counter-screen; format: cell-based; conditions: 1st and 2nd trial
Description: Infection of hepatoma cell lines with HCV pseudotype particles and screen for inhibitory peptides. The hepatoma cells, Huh7, was seeded at 8000 cells in 90 ul medium in 96-well plate. In the case of the inhibitor screen, the inhibitor was incubated with cells for one hour at 37° C. and then 50 ul viral supernatant was added to the cells 24 hours after seeding. The viral stock was pre-tittered and diluted to yield approximately 10,000 to 20,000 RLU. The cells were incubated at 37° C. with 5% CO2 for additional 72 hours and were harvested for luciferase assay. Peptide stocks were prepared in 100% DMSO at 10 mg/ml and were first screened at 100 ug/ml and then a dose responsive curve was generated with 10 points 3-fold titration starting from 100 ug/ml.
The specificity of the peptides were counter-screened with AMLV and HIV pseudotyped viruses using the same infection protocol.
The data points for the dose response curve of peptide […] (SEQ ID NO: 77) are shown below in tables 5A (HCVpp) and 5B (HIVpp). The peptide of SEQ ID NO: 77 was first serial diluted by the factor of 3 in 100% DMSO from 100 ug/ml and then transferred to the assay plates at 100-fold dilution. The peptide was first incubated with cells and HCVpp (A) or HIVpp (B), respectively, for 30 minutes at […] in this experiment. Then, the medium containing the peptide was removed from the cells and virus with peptide was added to the cells. Cells were incubated for 72 hours and then were harvested for luciferase assay. Two separate trials were performed.

[4] = tested on: HCV pseudoparticles; test: HCV pseudoparticle entry assay, anti-CD81 antibody and peptide titrated in a 96-well matrix; format: cell-based, hepatitis C virus; conditions: HCV entry inhibition, combination
Description: The anti-CD81 antibody and the peptide were titrated in duplicates in a 96-well formatted matrix and tested in an HCV pseudoparticle entry assay. The assays were carried out essentially as described above.
Dose response curves of anti-CD81 antibody with various amounts of peptide were plotted vs. RLU, and the results are summarized below. […] When the peptide was present at 10-30% of its IC50 concentration, the IC50 for anti-CD81 was reduced by 3 to 6-fold. Similarly, when the peptide was present at 1% to 25% of its IC75 concentration, the IC75 for the anti-CD81 antibody was reduced by 3 to 9 fold. Thus, the peptide enhances the potency of the anti-CD81 antibody.

[5] = tested on: HCV pseudoparticles; test: Fusion/attachment experiments with HCV pseudoparticles (4° C. attachment, 37° C. entry); format: cell-based, hepatitis C virus; conditions: for RLU: single replicates, listed as V-2b
Description: The entry process was allowed to complete after the cells were washed and incubated at 37° C. for 72 hours. If the peptide blocked or interfered with the attachment, few HCVpp particles should bind to the cells and lead to reduced luciferase signal. The peptide had approximately 50% inhibition whereas the anti-CD81 antibody inhibited entry by 20%. Alternatively, an explanation could be that the cell-associated peptide or antibody had no effects on virus attachment, but rather inhibit post-attachment steps, e.g. fusion. When we allowed the HCV pseudoparticles to attach first at 4° C., a nonpermissive temperature for fusion, and added the peptide or anti-CD81 antibody when post-attachment events occurred, anti-CD81 antibody almost inhibited entry by 100%, whereas, the peptide inhibited by approximately 80%.
The incubation scheme for the fusion/attachment experiments is summarized as follows: […]

[6] = A + P (attachment + post attachment)

V-S-F-A-I-K-W-E-Y-V-L-L-L-F-L-L [SEQ ID NO: 77]
RLU units ([1]; peptide conc. 0.091515 log ug/ml, 1st and 2nd trial): 1044 RLU and 833 RLU
RLU units ([1]; peptide conc. 0.568636 log ug/ml, 1st and 2nd trial): 544 RLU and 500 RLU
RLU units ([1]; peptide conc. 2 log ug/ml, 1st and 2nd trial): 11 RLU and 10 RLU
RLU units ([1]; peptide conc. not given, 1st trial): 1494 RLU
RLU units ([1]; peptide conc. −0.38561 log ug/ml, 1st and 2nd trial): 1279 RLU and 1283 RLU
RLU units ([1]; peptide conc. −0.86273 log ug/ml, 1st and 2nd trial): 1866 RLU and 1762 RLU
RLU units ([1]; peptide conc. −1.33985 log ug/ml (three lines), 1st and 2nd trial): 2564 RLU and 2703 RLU and 2998 RLU and 3512 RLU and 2090 RLU and 3359 RLU
HCVpp % inh ([1]; peptide library screen, first screened at 100 ug/ml, cell entry inhibition vs uninhibited control): 96%
AMLVpp % inh [2]: 3%
RLU units ([3]; peptide conc. 0.091515 log ug/ml): 674698 RLU and 651004 RLU
RLU units ([3]; peptide conc. 0.568636 log ug/ml): 561454 RLU and 612198 RLU
RLU units ([3]; peptide conc. 1.045758 log ug/ml): 740592 RLU and 744482 RLU
RLU units ([3]; peptide conc. 1.522879 log ug/ml): 787025 RLU and 683636 RLU
RLU units ([3]; peptide conc. 2 log ug/ml): 435408 RLU and 543239 RLU
RLU units ([3]; peptide conc. −0.38561 log ug/ml): 732652 RLU and 734586 RLU
RLU units ([3]; peptide conc. −0.86273 log ug/ml): 676303 RLU and 639921 RLU
RLU units ([3]; peptide conc. −1.33985 log ug/ml): 815312 RLU and 754404 RLU
effect of the peptide on potency of anti-CD81 antibody [4]: enhance the potency of an anti-CD81 antibody
step of HCVpp entry inhibited [5]: largely inhibits a post-attachment step
% control peptide ([5]; A (attachment)): 39 % control
RLU average (peptide) ([5]; A (attachment)): 5942 RLU
RLU ([5]; A (attachment)): 5196 RLU and 7987 RLU and 4644 RLU
% control peptide [5, 6]: 6 % control
RLU average (peptide) [5, 6]: 863 RLU
RLU [5, 6]: 527 RLU and 1541 RLU and 520 RLU
inhibition of entry ([5]; HCV pseudoparticles attached first at 4° C., substance added when post-attachment events occurred): approximately 80%
% control peptide ([5]; P (post attachment)): 11 % control
RLU average (peptide) ([5]; P (post attachment)): 1647 RLU
RLU ([5]; P (post attachment)): 1984 RLU and 2412 RLU and 545 RLU
inhibition of entry ([5]; pre-incubated with cells at 4° C., then HCV pseudoparticles at 4° C., washed, 37° C. for 72 hours (attachment)): approximately 50%
